The text below walks through data of PubChem BioAssay AID1902 (Broad Institute, 2009).

Calls of active or inactive are those of the source.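 The calls were made as follows: active = EC50 no more than a set limit of log units above the highest dose; inactive = the rest.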

In the assay the target is S. pyogenes SKKanGAS, kanamycin survival, BacTiterGlo, 6 h. Put plainly: SKKanGAS survival reduction under kanamycin, dose response, streptokinase promoter inhibitor project, SKKanGAS strain, luminescence, dose confirmation (AID 1902).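 Also: lower survival reflects blocked streptokinase promoter driving kanamycin resistance gene.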
With `CCc1ccc(S(=O)(=O)/N=C2\C=C(Nc3ccc(O)cc3)C(=O)c3ccccc32)cc1`, the EC50 (in general, the concentration that produces a half-maximal response) was 1510 nM.

Take `CCn1c(NC(=O)c2cccc(Cn3cc(Cl)cn3)c2)nc2ccccc21`: the EC50 is 1020 nM.

Turning to `COc1cccc(N/N=C/c2cccc(Br)c2O)c1`, the EC50 is 15600 nM.

For `OC(CN=c1sc2ccccc2n1CC(O)COc1ccccc1)COc1ccccc1` (configuration not stated), the EC50 was 6280 nM.

For `Nc1[nH]n2c(=O)c3c(nc2c1N=Nc1ccc(Cl)cc1)CCCC3`, the EC50 was 6130 nM.

In the case of `COc1ccccc1-c1n[nH]c2c1[C@H](C)CC[C@H]2C(C)C`, the EC50 is 2810 nM.

Turning to `O=C(NNC1=C(C(=O)C(F)(F)F)CCC1)c1cccc(Cl)c1`, the EC50 is 931 nM.

Regarding `C=CCOC(=O)C1=C(C)NC(SCC)=C(C#N)C1c1ccc(Cl)cc1` (configuration not stated), the EC50 is 5920 nM.

For the molecule `CCN(CC)c1ccc(C(=O)OCc2cc(=O)oc3cc(O)ccc23)cc1`, the EC50 is 15300 nM.

As to `N#Cc1c(-c2ccccc2)nc(SCc2cccc(C(F)(F)F)c2)[nH]c1=O`, the EC50 is 1970 nM.

For `CCOC(=O)c1csc(N/N=C2\CCCc3ccccc32)n1`, the EC50 was 11000 nM.

On to `Cc1nn(-c2ccccc2)c(C)c1/C=N/NC(=O)c1cc(-c2cccc3ccccc23)n[nH]1`, for which the EC50 was 6540 nM.

In the case of `Cc1cc(C(=O)N/N=C/c2cc(Cl)cc([N+](=O)[O-])c2O)c2ccccc2n1`, the EC50 was 2610 nM.

For `Nc1nc(Nc2ccccc2)nc(NC2CCCCC2)c1[N+](=O)[O-]`, the EC50 was 5570 nM.

For `CC(=O)OCC1=C(C(=O)O)N2C(=O)C(NC(=O)C(C)Cn3cc(Cl)cn3)C2SC1` (configuration not stated), the EC50 was 1960 nM.

Turning to `O=C(Nc1nnc(SCc2ccc(F)cc2)s1)c1ccccn1`, the EC50 is 382 nM.

For the molecule `CCc1ccc(-c2cc(C)no2)cc1S(=O)(=O)Nc1cccc(CN2CCCC2)c1`, the EC50 is > 15000 nM (inactive).

As to `CCOc1ccc2nc(NC(=O)CN3CCC(n4nnc5cc(C(F)(F)F)ccc54)CC3)sc2c1`, the EC50 was 2430 nM.

For the molecule `Cn1nc(-c2ccccc2)c(CSc2cccc(Cl)c2)c1Cl`, the EC50 was 1080 nM.

For `COc1cc(C(=O)NNC(=S)NC(=O)c2ccc(F)cc2)cc(OC)c1OC`, the EC50 is 989 nM.

On to `COc1cc(/C=N/Nc2nc(Nc3ccccc3)nc(-n3nc(C)cc3C)n2)cc(OC)c1OC`, for which the EC50 was 3140 nM.

In the case of `Cc1sc2ncnc(N3CCC(C(=O)NCC(=O)Nc4ccc(F)c(F)c4)CC3)c2c1C`, the EC50 is 5060 nM.

For `O=C1CCSc2ccc(Cl)cc2N1Cc1ccc(Cl)cc1`, the EC50 is 3930 nM.

As for `CCOc1ccc(NC(=O)CN(C)C(=O)C2CC(=O)N(c3ccc4c(c3)OCCO4)C2)cc1OCC` (configuration not stated), the EC50 is > 15000 nM (inactive).

For the molecule `O=C(Nc1cccc(Cl)c1)Nc1cc(S(=O)(=O)N2CCCCC2)ccc1Cl`, the EC50 was 7750 nM.

With `CC(C)c1ccc(-n2c(O)c(/C=N/NC(=O)c3ccccc3O)c(=O)[nH]c2=S)cc1`, the EC50 was 7000 nM.

Regarding `Cc1ccc(OCC(=O)Nc2nc(-c3ccccn3)cs2)c(C)c1`, the EC50 is 1990 nM.

As to `Cc1cccc(/C=C2/S/C(=N/N=C3\CC4CCC3(C)C4(C)C)NC2=O)c1` (configuration not stated), the EC50 was 1180 nM.

In the case of `CC/C(=C\C1CCCCC1)C(NP(=O)(c1ccccc1)c1ccccc1)c1ccccc1` (configuration not stated), the EC50 is 1140 nM.

In the case of `CC1Cc2ccccc2N1C(=S)NC(=O)c1ccc(Cl)cc1Cl` (configuration not stated), the EC50 was 4260 nM.

`CC(C)=CCc1c(O)c(CC=C(C)C)c2occ(-c3ccc(O)cc3)c(=O)c2c1O`: the EC50 was 1860 nM.

Take `CCC(C)Sc1cc(-c2nc3ccccn3c2NC2CCCCC2)ccc1OC` (configuration not stated): the EC50 was 2940 nM.

As to `CC1(c2ccccc2)CC(C)(C)N2C(=O)/C(=C3\SC(=S)NC3=O)c3cccc1c32` (configuration not stated), the EC50 was 430 nM.

Consider `CC(=O)NC(c1ccc(Cl)cc1Cl)c1ccc2cccnc2c1O` (configuration not stated), for which the EC50 is 4200 nM.

For the molecule `CCOC(=O)C1=C(C)NC2=C(C(=O)c3ccccc32)C1c1ccc([N+](=O)[O-])o1` (configuration not stated), the EC50 was 12800 nM.

Take `O=c1[nH]c(NNC(=S)NC2CCCCC2)nc2c1C1(CCCC1)Cc1ccccc1-2`: the EC50 is 1350 nM.

In the case of `Cc1nc(-n2[nH]c3c(c2=O)CCCC3)[nH]c(=O)c1Cc1ccccc1`, the EC50 is 1390 nM.

With `Cn1c(N)c(C(=O)COC(=O)CCc2c[nH]c3ccccc23)c(=O)n(C)c1=O`, the EC50 is 9680 nM.

Take `O=C(NC(=S)NNC(=O)[C@H]1C[C@@H]1c1ccccc1)c1ccc(F)cc1`: the EC50 was 715 nM.

Consider `COc1ccc(-c2nn(-c3ccccc3)cc2/C=C2/SC(=S)N(CCC(=O)O)C2=O)cc1`, for which the EC50 was 1830 nM.

Turning to `CCC(=O)Nc1nc2ccccc2n1Cc1ccccc1Cl`, the EC50 is 8220 nM.

On to `CC(=O)[C@]1(O)Cc2c(O)c3c(c(O)c2[C@@H](O[C@H]2C[C@H](N)[C@H](O)[C@H](C)O2)C1)C(=O)c1ccccc1C3=O`, for which the EC50 was 1130 nM.

On to `CC(C)c1ccc2c(c1)C1(NN=C(c3ccccc3)S1)C(=O)N2` (configuration not stated), for which the EC50 was less than 60 nM.

For the molecule `Cc1ccc(C(=O)CC(=O)c2ccccc2C)c(O)c1`, the concentration giving a half-maximal response (EC50) is 5180 nM.

As to `CCCCCCn1c(=O)c(C(=O)Nc2c(C)n(C)n(-c3ccccc3)c2=O)c(O)c2ccccc21`, the EC50 was 2590 nM.

In the case of `O=C(NCc1ccc(C(F)(F)F)cc1)c1ccc2c(c1)S(=O)(=O)c1ccccc1C2=O`, the EC50 was > 15000 nM (inactive).

Turning to `O=C(Nc1nc2ccccc2[nH]1)c1cccc(Cl)c1`, the 50% effective concentration (EC50) is 10400 nM.

Turning to `O=C(NNC(=S)NC(=O)c1ccco1)c1ccc(NC(=O)c2ccccc2)cc1`, the EC50 is 1210 nM.

Take `CCOc1cc(-c2cc(-c3ccc(NC(C)=O)cc3)nc(N)c2C#N)ccc1O`: the EC50 is 919 nM.

`Cc1ccc(C(=O)NNC(=S)NC(=O)c2ccco2)cc1`: the EC50 is 905 nM.

Turning to `CC(C)C(=O)Nc1ccc(C(=O)N/N=C/c2cc(Br)cc(Br)c2O)cc1`, the EC50 is 1360 nM.

On to `O=C(Nc1nc2ccccc2n1Cc1ccccc1)c1ccco1`, for which the EC50 is 2910 nM.

In the case of `CC[C@H]1OC(=O)[C@H](C)[C@@H](O[C@H]2C[C@@](C)(OC)[C@@H](O)[C@H](C)O2)[C@H](C)[C@@H](O[C@@H]2O[C@H](C)C[C@H](N(C)C)[C@H]2O)[C@](C)(O)C[C@@H](C)[C@@H]2N[C@@H](COCCOC)O[C@H]([C@H]2C)[C@]1(C)O`, the EC50 is less than 60 nM.

On to `CCC(=O)Oc1ccc(-c2nc(-c3cccnc3)no2)cc1`, for which the EC50 is 4300 nM.

As to `O=S(=O)(Cc1nnnn1-c1ccccc1)c1ccc(F)cc1`, the EC50 is > 15000 nM (inactive).

As for `Nc1n[nH]c(C2CC2)c1N=Nc1ccc(Cl)c(Cl)c1`, the EC50 is 2050 nM.

Consider `O=C(Nc1ccc(F)cc1)N1CCCCCC1`, for which the EC50 is > 15000 nM (inactive).

Consider `CCCCCCCCCCn1c2c(c(=N)c3c1CCC3)CCC2`, for which the EC50 is 9260 nM.

Take `O=C(NNC(=S)Nc1ccc(Cl)c(Cl)c1)c1ccccn1`: the EC50 is 1660 nM.

In the case of `Cc1ccc(N/N=C2\CS(=O)(=O)N(C)c3ccsc32)cc1`, the EC50 is 1490 nM.

On to `O=C(c1nc2ccc(Cl)cn2c1CN1CCC(CO)CC1)N1CCc2ccccc2C1`, for which the EC50 is > 15000 nM (inactive).

Regarding `COc1cccc(-c2nn(C)c3sc(C(=O)Nc4ccc5c(c4)OCCO5)cc23)c1`, the EC50 was 3650 nM.

In the case of `Cc1c(C(=O)NNC(=O)c2ccccc2O)oc2ccc(Br)cc12`, the EC50 is > 15000 nM (inactive).

Consider `CCc1ccc(-c2ccc3nnc(SCC(N)=O)n3n2)cc1`, for which the EC50 was 1660 nM.

In the case of `CCOC(=O)c1c(-c2ccc(C)cc2)csc1NC(=O)CCN1CCOCC1`, the EC50 is > 15000 nM (inactive).

For `CC1(C)N=C(N)NC(Nc2ccccc2)=N1`, the EC50 is 3750 nM.

As to `COc1ccc([N+](=O)[O-])cc1NC(=S)NC(NC(=O)C(c1ccccc1)c1ccccc1)C(Cl)(Cl)Cl` (configuration not stated), the EC50 is 12000 nM.

Take `COc1ccc(/C=C/C(=O)NC(=S)NNC(=O)[C@H]2C[C@@H]2c2ccccc2)cc1OC`: the EC50 is 362 nM.

Turning to `COc1ccc(C(=O)Nc2cccc(-c3ccc(N4CCOCC4)nn3)c2)cc1`, the EC50 is > 15000 nM (inactive).

Take `Cc1cccc(CSc2nc(N)c(C#N)c(-c3cccs3)c2C#N)c1`: the EC50 is 4770 nM.

For the molecule `CCCCCCn1c(=O)c(C(=O)Nc2ncccc2C)c(O)c2ccccc21`, the EC50 is 507 nM.

For `COc1c(CC=C(C)C)cc(C2CC(=O)c3c(O)cc(O)cc3O2)cc1CC=C(C)C` (configuration not stated), the half-maximal effective concentration (EC50) is 1990 nM.

Take `COc1cccc(/C=N/Nc2nc(Nc3ccc([N+](=O)[O-])cc3)nc(N3CCCC3)n2)c1O`: the EC50 is 1180 nM.

On to `Cc1cccc(NCC(=O)N/N=C\c2cccc(Oc3ccccc3)c2)c1`, for which the EC50 was 11900 nM.

For the molecule `COc1ccc(-c2oc3ncn(Cc4ccco4)c(=N)c3c2-c2ccc(OC)cc2)cc1`, the EC50 was 4760 nM.

With `COc1ccc(C(=O)NNC(=S)NC(=O)c2ccco2)cc1`, the EC50 was 2290 nM.

With `COc1ccc(/C=N/Nc2cc(C)nc(-n3nc(C)cc3C)n2)c(OC)c1`, the EC50 is 7930 nM.

Regarding `[O-][n+]1c2ccccc2[n+]([O-])c2cc(O)ccc21`, the EC50 was 5860 nM.

`O=C(CNc1ccccc1)N/N=C/c1c(O)ccc2ccccc12`: the concentration for a half-maximal effect (EC50) was 740 nM.

Take `O=C(Nc1cccc(-c2ccc(N3CCOCC3)nn2)c1)c1ccccc1Cl`: the EC50 is > 15000 nM (inactive).

Consider `Cc1[nH]nc(Nc2ccc(C(C)C)cc2)c1[N+](=O)[O-]`, for which the EC50 is 13800 nM.

Take `Cc1cccc(NC(=O)c2nc[nH]c2C(=O)N[C@@H](Cc2ccccc2)C(=O)OC(C)(C)C)c1`: the EC50 is 1440 nM.

Turning to `CCCOc1ccc(C(=O)NNC(=S)NC(=O)c2ccccc2[N+](=O)[O-])cc1`, the EC50 is 1800 nM.

Turning to `COc1ccc(-c2cc(C(F)(F)F)nc(NCc3cccs3)n2)cc1`, the EC50 was 4950 nM.

Take `Fc1ccc(-c2csc3ncnc(N4CCc5ccccc5C4)c23)cc1`: the EC50 is 2720 nM.

As for `Cc1onc(-c2ccccc2)c1C(=O)NNC(=S)NC(=O)c1ccc2c(c1)OCO2`, the EC50 was 589 nM.

For `COc1cc(OC)c([C@H]2C=C(C)[C@H]3C[C@@H]2C3(C)C)c(OC)c1`, the EC50 was 2600 nM.

Consider `O=[N+]([O-])c1cc(Br)c(O)c(/C=N/Nc2nc3ccccc3s2)c1`, for which the EC50 is 1220 nM.

On to `CCc1nnc(NC(=O)c2sc3nc4cc(C)ccc4cc3c2N)s1`, for which the EC50 was 3770 nM.

As to `O=C(NNC(=S)NC(=O)c1ccccc1)c1ccc(O)cc1`, the EC50 was 2260 nM.

Consider `COc1cc2c(C#N)c(N3CCN(c4ccccc4OC)CC3)nc(N)c2c(N)n1`, for which the EC50 was 4660 nM.

For `CCOC(=O)c1sc2nccc(N(C)C)c2c1N=CNOCc1c(F)cccc1Cl`, the EC50 was 5160 nM.
